This is an account of results in patent US20100266604A1, “USE OF TAM RECEPTOR INHIBITORS AS IMMUNOENHANCERS AND TAM ACTIVATORS AS IMMUNOSUPPRESSORS” (The Salk Institute for Biological Studies, priority 2007, published 2010).

What all share (assay type): cell-based, mouse
In series [1] the test system is TLR-induced cytokine production in DCs. Briefly: DC activation assay: TLR-induced cytokine production (ELISA / ISRE luciferase reporter). How it is done: Splenic DC or BM-DCs (1×10^6 cells/ml) were cultured overnight in serum-free medium (StemSpan, StemCell Technologies Inc.) in the presence of the indicated concentrations of LPS from Salmonella minnesota R595 Re (Alexis), CpG-ODN 1668 (TCCATGACGTTCCGATGCT; SEQ ID NO: 19; Integrated DNA Technologies) or Poly I:C (InvivoGen) alone or in the presence of murine recombinant Gas6 (R&D Systems) or murine recombinant Protein S (produced as described in Prasad et al., (2006) Mol Cell Neurosci 33:96-108). Cytokine production was quantified in cell-free supernatants by ELISA (ebioscience for IL-12, IL-6 and TNFα and PBL-biomedical for IFNα) or by a luciferase assay using a cell line containing an ISRE-responsive element luciferase reporter construct for Type I IFN (Jiang et al., (2005) Nat Immunol 6:565-570).
In general terms: An ELISA detects its analyte on a solid surface through an enzyme-linked reagent.

For a further series, the system named is DCs. Briefly: DC viability after Gas6 treatment.
Series [2] deals with p38 and ERK1/2 phosphorylation in BM-DCs. Kind of series: Immunoblot of TLR-induced MAP kinase activation (phospho-p38, phospho-ERK1/2). How it is done:
(§1) Splenic DCs (1×10^6 cells/ml) or BM-DCs (5×10^6 cells/ml) were cultured in serum-free medium and treated with the indicated concentrations of murine recombinant Gas6, murine recombinant Protein S, the TLR ligands indicated above, recombinant mouse IFNα (PBL Biomedical laboratories), recombinant mouse Axl-FC chimera (R&D), cyclohexamide (Sigma) or Actinomycin D (Sigma). Whole cell lysates and RNA extraction were performed as indicated below.
(§2) DCs were washed in PBS and harvested in NuPage LDS sample buffer (Invitrogen) with 100 μM DTT. Whole cell lysates were resolved by electrophoresis, proteins were transferred to a PVDF membrane (Immobilon P, Millipore), blocked in 3% BSA/TBS-Tween-20 and probed with the indicated antibodies. For fluorescent western blotting with the Odyssey system, proteins were transferred to an Immobilon-FL PVDF membrane (Millipore) and incubated with two primary antibodies in 0.1% casein/PBS-Tween-20. Following incubation with fluorescence-labeled secondary antibodies, membranes were scanned with the Odyssey imaging system (LI-COR).
Background: A western blot detects proteins with antibodies after separation by electrophoresis.

Series [3] relates to IκBα and IκBβ degradation (NF-κB pathway) in BM-DCs. Kind of series: Quantitative Li-Cor Odyssey Western blot of TLR-induced IκB degradation. How it is done: as §1, §2
In series [4] the test system is SOCS1 and SOCS3 mRNA in DCs. Briefly: Q-PCR of SOCS1 and SOCS3 mRNA in DCs. How it is done:
as §1
(§3) After stimulation, cells were harvested, and total RNA was isolated using the RNeasy mini kit (Qiagen). Reverse transcription was performed according to manufacturer instructions with RT Superscript III (Invitrogen). PCR reactions were performed on an ABI Prism 7700 Sequence Detection System using SYBRGreen PCR master mix (Applied Biosystems). Each reaction was normalized against the expression of β-actin or GAPDH. Analyses of dissociation curves were performed with SDS software (Applied Biosystems) to ensure the absence of nonspecific amplification. Q-PCR primers used herein are listed below.

The subject of series [5] is IRAK-M, SHIP, ATF-3, IRF-4, Triad3A and Tollip mRNA in BM-DCs. Briefly: Q-PCR of other negative regulators of TLR signaling. To be noted: following TAM receptor activation with 50 nM Gas6. How it is done:
as §1, §3

Series [6] concerns TRAF6 and TRAF3 polyubiquitylation in BM-DCs. Briefly: Ubiquitylation assay of TRAF6 and TRAF3. To be noted: 30 minutes LPS, 2-hour prior incubation with Gas6. How it is done: For ubiquitylation assays, 5×10^6 BM-DCs per condition were harvested in PBS containing 1% SDS and boiled for 5 minutes. PBS containing 1% Triton X-100, 1 mM DTT, 1 mM Na3VO4, 5 mM NaF and protease inhibitors (Complete, Roche) was added and the mixture was sonicated. Lysates were precleared for 1 hour by incubation with Immobilized rProteinA (RepliGen) and incubated overnight with primary antibody at 4° C. Immobilized rProteinA was added for the last 2 hours. The immunoprecipitates were washed in PBS containing 0.2% NP-40 and 0.5 M LiCl and resuspended and boiled in NuPage LDS sample buffer (Invitrogen) with 100 μM DTT.

For series [7], the system named is phospho-STAT1 (Y701), phospho-STAT2, phospho-STAT3 in DCs. Kind of series: Immunoblot of STAT phosphorylation in DCs. As for the experimental part: as §1, §2
In series [8] the test system is IRF-7 and IFI-204 mRNA in DCs. Briefly: Q-PCR of IRF-7 and IFI-204 mRNA in DCs. To be noted: BM-DCs, addition of Gas6 alone. As for the experimental part:
as §1, §3

Setting [9] is: poly I:C, prior treatment with Gas6.

Regarding “Gas6: murine recombinant Gas6 (R&D Systems), TAM receptor ligand/agonist”, the “LPS-induced production of IL-6” value in [1] (Ifnar−/− DCs, Gas6) is “unable to inhibit”. Further, in series [1] (STAT1−/− DCs, 50 nM Gas6, 15 hours), the “expression of IL6 triggered by LPS or CpG” value is “not inhibited”. The “poly I:C-induced Type I IFN” value in series [1] (TLR3 activated by poly I:C, 15 hours, 50 nM Gas6) was “comparable Gas6-mediated inhibition”. In addition, the “LPS-induced IL6 and TNFα production” value in [1] (TLR4 activated by LPS, 15 hours, 50 nM Gas6) is “comparable Gas6-mediated inhibition”. For the same substance, the “TLR9-induced production of Type I IFNs, IL6, and TNFα” value in [1] (wild-type DCs, overnight (15 hours) co-incubation with CpG, 50 nM Gas6) was “substantially inhibited”. For the same substance, the DC viability result in the series on DCs was “unaffected”. Further, the “CpG-induced phosphorylation of p38 and ERK1/2” value in series [2] (1 μM CpG, 2-hour prior incubation with ligand) is reported as “completely blocked”. Also, the “activation of p38 and ERK1/2 as a consequence of TLR4 ligation” value in series [2] (LPS, prior incubation with Gas6) is “inhibited”. For the same substance, the “Activation of the MAP kinase pathway by TLR3” value in [2] (setting [9]) was “inhibited”. The “CpG-induced degradation of IκBα and IκBβ” value in series [3] (BM-DCs, prior incubation with ligand) was “completely blocked”. Also, the “kinetics and magnitude of CpG-induced degradation of IκBα and IκBβ” value in [3] (in the presence of cycloheximide or actinomycin D) is “the same, irrespective of the presence or absence of Gas6”. The “Activation of the NF-κB pathway by TLR3” value in series [3] (setting [9]) is recorded as “inhibited”. The “SOCS3 mRNA peak expression” value in series [4] (BM-DCs, 50 nM Gas6, around 90 minutes) is recorded as “approximately 10 fold”. In addition, in series [4] (Ifnar−/− DCs, Gas6), the SOCS1 expression entry is listed as “unable to up-regulate”. In [4] (STAT1−/− DCs), the “Gas6-mediated induction of SOCS1 mRNA” value was “completely abolished” and the “Gas6 induction of SOCS3 mRNA” value is “substantially reduced”. The “SOCS1 mRNA expression increase” value in series [4] (WT BM-DCs, 50 nM Gas6, 120 minutes) is recorded as “approximately 10 fold”. Besides, in [5], the “induction of IRAK-M, SHIP, ATF-3, IRF-4, Triad3A, Tollip mRNAs” value is “none of these mRNAs displayed significant induction”. The “LPS-induced polyubiquitylation of TRAF6 and TRAF3” value in [6] is recorded as “potently inhibited”. Further, the “activation of STAT2 and 3” value in [7] (DC cultures, addition of Gas6) was “not detected”. Further, the STAT1 tyrosine phosphorylation result in series [7] (Ifnar−/− BM-DCs, Gas6 application) is on record as “incapable of activating STAT1”. In addition, the “STAT1 activation (phospho-STAT1 Y701)” value in [7] (TAM triple mutant DCs, Gas6) is given as “not seen”. For the same substance, in series [7] (wild-type DCs, incubation with Gas6), the “STAT1 activation (phospho-STAT1 Y701)” value is reported as “activated”. In addition, the “induction of IRF-7 and IFI-204” value in series [8] is listed as “not induced”.
